Activity calls are given as the source filed them. No cut-off for these calls is given here.
How the values were obtained:
[1] = molecular target: 3',5'-cyclic-AMP phosphodiesterase 4A (Homo sapiens) (UniProt P27815); test: Inhibition of recombinant N-terminal GST tagged human PDE4A4B (2-end aa) expressed in Sf9 cells using FAM-cAMP as substrate at 10 uM incubated for 60 mins by fluorescence plate reader analysis
Rattus norvegicus [2] = test: Antiinflammatory activity in complete Freund's adjuvant-induced Wistar rat arthritis model assessed as reduction in IL1beta expression in serum at 30 mg/kg, ip administered from 11th day to 20th day by ELISA; type: functional, organism-based
[3] = Hepatotoxicity in zebrafish embryos assessed as liver degeneration at 1 to 100 uM incubated for 7 dpf; type: toxicity, Danio rerio; conditions: in vivo
[4] = molecular target: cAMP and cAMP-inhibited cGMP 3',5'-cyclic phosphodiesterase 10A (Homo sapiens) (UniProt Q9Y233); test: Inhibition of recombinant N-terminal GST-tagged full length human PDE10A2 expressed in Sf9 cells using FAM-cAMP as substrate at 10 uM incubated for 60 mins by fluorescence plate reader analysis
[5] = Cmax in BALB/c mouse at 10 mg/kg, iv measured for 24 hrs post dose by LC-MS/MS analysis; type: ADME, organism-based; set-up: dose 10 mg/kg, route intravenous; conditions: in vivo
Rattus norvegicus [6] = test: Antiarthritic activity in complete Freund's adjuvant-induced Wistar rat arthritis model assessed as reduction in paw volume at 30 mg/kg, ip administered from 11th day to 20th day by vernier caliper analysis; type: functional, organism-based
[7] = Toxicity in zebrafish embryo assessed as effect in brain formation at 1 to 100 uM; type: tissue-based, Danio rerio; conditions: in vivo
[8] = Toxicity in zebrafish embryo assessed as effect in notochord formation at 1 to 100 uM; set-up: species or system Danio rerio; conditions: in vivo
Rattus norvegicus [9] = test: Antiarthritic activity in complete Freund's adjuvant-induced Wistar rat arthritis model assessed as reduction in pannus formation at 30 mg/kg, ip administered from 11th day to 20th day by H&E staining based microscopic analysis; type: functional, organism-based
[10] = molecular target: High affinity cGMP-specific 3',5'-cyclic phosphodiesterase 9A (Homo sapiens) (UniProt O76083); test: Inhibition of recombinant N-terminal GST-tagged full length human PDE9A2 expressed in Sf9 cells using F AM-cGMP as substrate at 10 uM incubated for 60 mins by fluorescence plate reader analysis
[11] = molecular target: cAMP and cAMP-inhibited cGMP 3',5'-cyclic phosphodiesterase 10A (Homo sapiens) (UniProt Q9Y233); test: Inhibition of recombinant -N-terminal GST-tagged human PDE10A1 (aa 2-789) expressed in Sf9 cells using FAM-cAMP as substrate at 10 uM incubated for 60 mins by fluorescence plate reader analysis
[12] = AUClast in BALB/c mouse at 10 mg/kg, iv measured for 24 hrs post dose by LC-MS/MS analysis; type: ADME, organism-based; set-up: dose 10 mg/kg, route intravenous, time 0 - last; conditions: in vivo
[13] = Toxicity in zebrafish embryo assessed as effect in liver formation at 1 to 100 uM; set-up: species or system Danio rerio; conditions: in vivo
[14] = molecular target: Dual specificity calcium/calmodulin-dependent 3',5'-cyclic nucleotide phosphodiesterase 1C (Homo sapiens) (UniProt Q14123); test: Inhibition of recombinant N-terminal GST tagged human PDE1C (2 to 634 aa) expressed in Sf9 cells at 10 uM using FAM-cAMP as substrate incubated for 60 mins by fluorescence plate reader analysis
[15] = molecular target: 3',5'-cyclic-AMP phosphodiesterase 4B (Homo sapiens, UniProt Q07343); test: Inhibition of human recombinant His-tagged PDE4B expressed in Sf9 cells using cAMP as substrate at 10 uM preincubated with enzyme for 15 mins followed by substrate addition and incubated for 1 hr by PDELight HTS cAMP phosphodiesterase Kit based luminometry relative to control
[16] = Toxicity in zebrafish embryo assessed as effect in upper jaw formation at 1 to 100 uM; set-up: species or system Danio rerio; conditions: in vivo
[17] = AUC (0 to infinity) in BALB/c mouse at 10 mg/kg, iv measured for 24 hrs post dose by LC-MS/MS analysis; type: ADME, organism-based; set-up: dose 10 mg/kg, time infinity, route intravenous; conditions: in vivo
Rattus norvegicus [18] = test: Antiinflammatory activity in complete Freund's adjuvant-induced Wistar rat arthritis model assessed as reduction in iNOS mRNA expression at 30 mg/kg, ip administered from 11th day to 20th day by qPCR analysis; type: functional, organism-based
[19] = Toxicity in zebrafish embryo assessed as effect in tail formation at 1 to 100 uM; set-up: species or system Danio rerio; conditions: in vivo
[20] = Tmax in BALB/c mouse at 10 mg/kg, iv measured for 24 hrs post dose by LC-MS/MS analysis; type: ADME, organism-based; conditions: in vivo
[21] = molecular target: cGMP-dependent 3',5'-cyclic phosphodiesterase (Homo sapiens) (UniProt O00408); test: Inhibition of recombinant N-terminal-GST-Th-tagged full length human PDE2A1 expressed in Sf9 cells using FAM-cAMP as substrate at 10 uM incubated for 60 mins by fluorescence plate reader analysis
[22] = Toxicity in zebrafish embryo assessed as effect in fin formation at 1 to 100 uM; set-up: species or system Danio rerio; conditions: in vivo
[23] = Inhibition of recombinant N-terminal GST-tagged full length human PDE4A1A expressed in Sf9 cells using cAMP as substrate at 10 uM incubated for 60 mins by fluorescence plate reader analysis
[24] = molecular target: Dual 3',5'-cyclic-AMP and -GMP phosphodiesterase 11A (Homo sapiens) (UniProt Q9HCR9); test: Inhibition of recombinant N-terminal GST-tagged full length human PDE11A4 expressed in Sf9 cells using FAM-cAMP as substrate at 10 uM incubated for 60 mins by fluorescence plate reader analysis
[25] = Toxicity in zebrafish embryo assessed as change in body shape at 1 to 100 uM; set-up: species or system Danio rerio; conditions: in vivo
[26] = Toxicity in zebrafish embryo assessed as effect in intestine formation at 1 to 100 uM; type: tissue-based, Danio rerio; conditions: in vivo
[27] = Cardiotoxicity in zebrafish embryos assessed as heart rate at 1 to 100 uM; type: toxicity, Danio rerio
[28] = Half life in rat liver microsomes at 5 uM by LC-MS/MS analysis; type: ADME, Microsome
Danio rerio = test: Anti-sclerotic activity in MOG/CFA-induced zebra fish EAE model assessed as prevention of disease progression at 3 to 30 mg/kg, ip measured for 7 days; type: functional, organism-based
[29] = molecular target: cGMP-specific 3',5'-cyclic phosphodiesterase (Homo sapiens) (UniProt O76074); test: Inhibition of recombinant N-terminal GST-tagged full length human PDE5A1 expressed in Sf9 cells using FAM-cGMP as substrate at 10 uM incubated for 60 mins by fluorescence plate reader analysis
[30] = Initial plasma concentration in BALB/c mouse at 10 mg/kg, iv measured for 24 hrs post dose by LC-MS/MS analysis; type: ADME, organism-based
[31] = molecular target: cGMP-inhibited 3',5'-cyclic phosphodiesterase 3B (Homo sapiens) (UniProt Q13370); test: Inhibition of recombinant N-terminal GST-tagged human PDE3B (592-end aa) expressed in Sf9 cells using FAM-cAMP as substrate at 10 uM incubated for 60 mins by fluorescence plate reader analysis
[32] = Intrinsic clearance in rat liver microsomes at 5 uM by LC-MS/MS analysis; type: ADME, Microsome; conditions: read-out: CLH
[33] = Toxicity in zebrafish embryo assessed as effect in lower jaw formation at 1 to 100 uM; set-up: species or system Danio rerio; conditions: in vivo
[34] = Hepatotoxicity in zebrafish embryos assessed as liver size at 1 to 100 uM incubated for 7 dpf; type: toxicity, Danio rerio; conditions: in vivo

Chain of cAMP and cAMP-inhibited cGMP 3',5'-cyclic phosphodiesterase 10A (Homo sapiens) (Q9Y233 whole entry, the tested form may be a part): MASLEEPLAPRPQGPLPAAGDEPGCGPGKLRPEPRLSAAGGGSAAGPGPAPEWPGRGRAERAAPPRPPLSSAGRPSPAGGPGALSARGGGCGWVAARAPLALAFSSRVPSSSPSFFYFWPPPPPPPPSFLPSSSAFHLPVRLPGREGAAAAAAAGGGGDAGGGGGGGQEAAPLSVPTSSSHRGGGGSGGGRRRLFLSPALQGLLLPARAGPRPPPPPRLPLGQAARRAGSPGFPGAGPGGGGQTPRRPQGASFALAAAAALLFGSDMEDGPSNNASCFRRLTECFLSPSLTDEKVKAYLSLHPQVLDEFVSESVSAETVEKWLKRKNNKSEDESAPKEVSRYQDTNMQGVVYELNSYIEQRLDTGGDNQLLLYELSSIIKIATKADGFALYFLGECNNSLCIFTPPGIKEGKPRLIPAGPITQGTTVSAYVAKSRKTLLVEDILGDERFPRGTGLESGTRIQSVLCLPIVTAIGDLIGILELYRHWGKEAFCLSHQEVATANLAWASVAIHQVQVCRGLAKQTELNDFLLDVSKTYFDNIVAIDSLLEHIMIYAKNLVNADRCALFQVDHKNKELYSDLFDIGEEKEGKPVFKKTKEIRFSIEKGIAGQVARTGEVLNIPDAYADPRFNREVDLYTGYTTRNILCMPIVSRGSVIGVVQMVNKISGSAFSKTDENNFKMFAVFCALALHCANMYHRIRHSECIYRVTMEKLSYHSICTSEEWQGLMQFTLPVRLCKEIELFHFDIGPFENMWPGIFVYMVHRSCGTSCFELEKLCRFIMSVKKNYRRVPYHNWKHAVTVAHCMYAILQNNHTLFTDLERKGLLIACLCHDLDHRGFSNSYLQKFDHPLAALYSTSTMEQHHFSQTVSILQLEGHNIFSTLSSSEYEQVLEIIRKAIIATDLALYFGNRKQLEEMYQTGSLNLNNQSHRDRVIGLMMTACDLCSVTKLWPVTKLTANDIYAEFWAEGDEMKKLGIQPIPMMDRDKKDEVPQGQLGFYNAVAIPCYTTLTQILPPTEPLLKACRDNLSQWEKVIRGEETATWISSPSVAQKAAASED
Chain of cGMP-inhibited 3',5'-cyclic phosphodiesterase 3B (Homo sapiens) (Q13370 whole entry, looked up): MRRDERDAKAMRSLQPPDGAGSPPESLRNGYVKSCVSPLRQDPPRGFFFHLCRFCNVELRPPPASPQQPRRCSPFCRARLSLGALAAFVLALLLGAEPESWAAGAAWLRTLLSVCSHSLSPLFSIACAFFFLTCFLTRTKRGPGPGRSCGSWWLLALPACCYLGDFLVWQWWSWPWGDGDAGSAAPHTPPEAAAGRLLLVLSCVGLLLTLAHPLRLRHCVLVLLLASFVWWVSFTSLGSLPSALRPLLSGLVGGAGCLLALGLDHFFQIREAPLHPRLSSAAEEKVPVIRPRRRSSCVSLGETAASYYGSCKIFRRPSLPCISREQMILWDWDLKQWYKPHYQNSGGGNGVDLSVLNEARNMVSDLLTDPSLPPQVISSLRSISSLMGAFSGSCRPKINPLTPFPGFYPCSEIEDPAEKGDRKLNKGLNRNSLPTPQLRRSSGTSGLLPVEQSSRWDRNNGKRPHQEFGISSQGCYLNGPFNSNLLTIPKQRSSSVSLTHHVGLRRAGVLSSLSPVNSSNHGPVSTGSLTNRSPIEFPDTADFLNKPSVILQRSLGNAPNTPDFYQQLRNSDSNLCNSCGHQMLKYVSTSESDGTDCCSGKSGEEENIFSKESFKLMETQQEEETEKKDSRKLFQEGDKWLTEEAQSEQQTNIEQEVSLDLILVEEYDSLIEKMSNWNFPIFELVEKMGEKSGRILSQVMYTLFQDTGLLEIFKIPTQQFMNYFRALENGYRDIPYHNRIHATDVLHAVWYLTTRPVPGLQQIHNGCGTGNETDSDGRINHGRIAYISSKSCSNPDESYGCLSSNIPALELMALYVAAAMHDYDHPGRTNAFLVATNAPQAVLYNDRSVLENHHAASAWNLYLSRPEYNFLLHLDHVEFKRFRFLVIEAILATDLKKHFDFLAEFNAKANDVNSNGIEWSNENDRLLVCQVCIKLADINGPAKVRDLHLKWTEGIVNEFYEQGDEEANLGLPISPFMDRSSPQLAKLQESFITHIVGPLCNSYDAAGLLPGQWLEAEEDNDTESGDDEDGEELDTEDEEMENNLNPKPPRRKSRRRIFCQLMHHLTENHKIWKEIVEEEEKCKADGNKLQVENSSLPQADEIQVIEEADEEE
Chain of 3',5'-cyclic-AMP phosphodiesterase 4A (Homo sapiens) (P27815 whole entry): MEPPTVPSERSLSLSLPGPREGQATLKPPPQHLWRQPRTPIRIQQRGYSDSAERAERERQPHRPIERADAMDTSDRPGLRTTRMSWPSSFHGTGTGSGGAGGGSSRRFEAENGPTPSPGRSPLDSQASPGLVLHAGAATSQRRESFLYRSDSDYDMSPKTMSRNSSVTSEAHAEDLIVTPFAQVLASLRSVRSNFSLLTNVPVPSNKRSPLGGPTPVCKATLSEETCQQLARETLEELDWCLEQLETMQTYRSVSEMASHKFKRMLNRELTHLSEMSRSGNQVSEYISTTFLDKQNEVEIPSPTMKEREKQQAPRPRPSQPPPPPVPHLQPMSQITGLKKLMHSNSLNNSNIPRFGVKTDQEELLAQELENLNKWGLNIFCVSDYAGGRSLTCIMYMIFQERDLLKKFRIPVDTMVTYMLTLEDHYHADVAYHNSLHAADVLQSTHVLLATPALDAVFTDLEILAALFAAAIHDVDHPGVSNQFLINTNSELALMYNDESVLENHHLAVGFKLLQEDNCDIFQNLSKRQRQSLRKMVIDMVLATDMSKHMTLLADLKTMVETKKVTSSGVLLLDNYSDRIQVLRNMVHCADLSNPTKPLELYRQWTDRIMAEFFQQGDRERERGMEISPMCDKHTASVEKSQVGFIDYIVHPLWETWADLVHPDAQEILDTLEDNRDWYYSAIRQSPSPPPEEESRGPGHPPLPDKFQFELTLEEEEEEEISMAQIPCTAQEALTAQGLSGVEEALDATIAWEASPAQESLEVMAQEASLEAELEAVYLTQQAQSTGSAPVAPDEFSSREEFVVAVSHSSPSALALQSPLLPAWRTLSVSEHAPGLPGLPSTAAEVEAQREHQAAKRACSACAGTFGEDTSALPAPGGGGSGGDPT
Chain of High affinity cGMP-specific 3',5'-cyclic phosphodiesterase 9A (Homo sapiens) (O76083 whole entry, the tested form may be a part): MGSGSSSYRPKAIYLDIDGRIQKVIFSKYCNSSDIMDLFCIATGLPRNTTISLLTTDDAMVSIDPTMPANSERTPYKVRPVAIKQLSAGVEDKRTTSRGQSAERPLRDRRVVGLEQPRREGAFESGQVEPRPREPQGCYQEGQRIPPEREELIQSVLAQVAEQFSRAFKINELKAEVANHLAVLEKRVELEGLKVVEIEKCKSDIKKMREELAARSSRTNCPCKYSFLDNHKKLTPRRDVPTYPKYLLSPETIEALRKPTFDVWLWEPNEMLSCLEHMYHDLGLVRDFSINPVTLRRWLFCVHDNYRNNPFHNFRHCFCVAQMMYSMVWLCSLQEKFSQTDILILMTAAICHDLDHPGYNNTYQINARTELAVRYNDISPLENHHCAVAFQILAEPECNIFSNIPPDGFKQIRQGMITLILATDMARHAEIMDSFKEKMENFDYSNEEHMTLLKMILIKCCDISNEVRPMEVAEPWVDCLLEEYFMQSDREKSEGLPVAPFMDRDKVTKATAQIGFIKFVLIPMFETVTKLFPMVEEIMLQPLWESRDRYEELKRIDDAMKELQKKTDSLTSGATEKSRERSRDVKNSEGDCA
Chain of Dual 3',5'-cyclic-AMP and -GMP phosphodiesterase 11A (Homo sapiens) (Q9HCR9 whole entry, looked up): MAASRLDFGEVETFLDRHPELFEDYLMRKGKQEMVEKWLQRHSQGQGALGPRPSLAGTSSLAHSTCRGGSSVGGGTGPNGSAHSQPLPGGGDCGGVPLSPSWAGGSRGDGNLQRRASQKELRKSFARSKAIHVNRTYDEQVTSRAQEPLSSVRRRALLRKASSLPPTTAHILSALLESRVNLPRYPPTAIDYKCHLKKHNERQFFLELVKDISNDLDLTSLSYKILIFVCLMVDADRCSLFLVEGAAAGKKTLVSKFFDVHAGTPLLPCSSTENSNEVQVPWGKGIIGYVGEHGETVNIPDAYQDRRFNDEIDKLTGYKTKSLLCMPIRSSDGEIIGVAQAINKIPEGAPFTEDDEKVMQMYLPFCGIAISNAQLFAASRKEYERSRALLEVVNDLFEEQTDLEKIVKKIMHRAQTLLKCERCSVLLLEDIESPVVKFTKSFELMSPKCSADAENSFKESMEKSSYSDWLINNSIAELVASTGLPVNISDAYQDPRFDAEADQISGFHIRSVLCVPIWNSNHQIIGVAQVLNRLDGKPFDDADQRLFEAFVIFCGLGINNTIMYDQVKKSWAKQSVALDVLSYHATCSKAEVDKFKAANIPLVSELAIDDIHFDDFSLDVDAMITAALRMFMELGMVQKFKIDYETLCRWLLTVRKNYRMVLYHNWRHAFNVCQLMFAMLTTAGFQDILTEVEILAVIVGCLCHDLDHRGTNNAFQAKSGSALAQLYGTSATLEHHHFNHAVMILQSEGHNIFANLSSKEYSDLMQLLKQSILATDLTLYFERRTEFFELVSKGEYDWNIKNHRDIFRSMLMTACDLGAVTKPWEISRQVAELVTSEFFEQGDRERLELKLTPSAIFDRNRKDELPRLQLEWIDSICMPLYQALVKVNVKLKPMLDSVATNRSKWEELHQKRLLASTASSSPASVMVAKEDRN

With `C=CCn1cc(-c2nc3ccccc3nc2Cl)c2cc(OC)ccc21` the inhibition [1] was 36%, the inhibition (Rattus norvegicus [2]) was “Active” and the Activity [3] was “Non-Toxic”. The inhibition [4] was 15%, the Cmax [5] was 2850 ng/mL and the inhibition (Rattus norvegicus [6]) was “Active”. The Activity [7] was “Non-Toxic”, the Activity [8] was “Toxic” and the inhibition (Rattus norvegicus [9]) was “Active”. It also gave an inhibition [10] of 9%, an inhibition [11] of 13% and an AUC(0-t) at 24 h [12] of 1090 ng·h/mL. The Activity [13] was “Non-Toxic”, the inhibition [14] was 39% and the inhibition [15] was over 75%. The Activity [16] was “Toxic”, the AUC(0-inf) [17] was 1160 ng·h/mL and the inhibition (Rattus norvegicus [18]) was “Active”. The Activity [19] was “Non-Toxic”, the Tmax [20] was 4.8 min and the inhibition [21] was 3%. For the same molecule, the Activity [22] was “Non-Toxic”, the inhibition [23] was 40% and the inhibition [24] was 7%. The Activity [25] was “Non-Toxic”, the Activity [26] was “Non-Toxic” and the Activity [27] was “Non-Toxic”. For the same molecule, the half-life at 5 µM [28] was 52.5 min, the Activity (Danio rerio) was “Active” and the inhibition [29] was 2%. It also gave a C0 at 24 h [30] of 5060 ng/mL, an inhibition [31] of 1% and a microsomal CLint at 5 µM [32] of 52.8 µL/min/mg. For the same molecule, the Activity [33] was “Toxic” and the Activity [34] was “Non-Toxic”.
